Literature values as cited in patent US9663462B2, “Anti-parasitic methods and compositions utilizing diindolylmethane-related indoles” (BioResponse, L.L.C., priority 2006, dated 2017).

Assays:
rainbow trout = settings: in vivo
[1] = target: Leishmania donovani topoisomerase I (LdTOPILS); settings: read-out: IC50, inhibition of Leishmania donovani topoisomerase I (LdTOPILS)
[2] = tested on: chemically induced forms of breast cancer; settings: orally administered, animals
NFκB signaling pathway = settings: breast cancer cells
[3] = metabolic half life of DIM
[4] = tested on: Mitogen Activated Protein Kinase (MAPK) cell signaling pathway; settings: cell culture
[5] = once formed from I3C
[6] = tested on: estrogen-dependent and independent breast cancer cells; settings: isolated DIM, cell culture
[7] = tested on: Human Papilloma Virus (HPV) oncogene altered cervical cancer cell lines

IC50 [1]: 1.2 µM
half-life [3]: 2 to 7 h
stability in acid [5]: stable
SMILES: c1ccc2c(Cc3c[nH]c4ccccc34)c[nH]c2c1 [DIM, 3,3′-diindolylmethane]
estrogenic activity (rainbow trout): estrogenic
growth of chemically induced breast cancer [2]: inhibits the growth
activation of the NFκB signaling pathway (NFκB signaling pathway): reduce activation
activation of MAPK cell signaling pathway [4]: activate
apoptosis promoting effects [6]: apoptosis promoting effects
estrogenic activity (breast cancer cells): estrogenic
induction of apoptosis [7]: induce apoptosis
